# Values joined by “and” are separate entries in the source; they are usually repeats but may differ in a detail not shown here. Equal values may be shown once.
# Tested on: 598228-144-R-J1-PDC complex spheroids, viability
# Test: Anticancer human tumor 598228-144-R-J1-PDC patient-derived serous endometrial adenocarcinoma cell line growth inhibition [CLK]
# Conditions: for viability, T/C: stronger effect = lower value
# Procedure, shortened: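 Multi-cell-type spheroids combined patient-derived tumor cells with HUVEC endothelial cells and human mesenchymal stem cells. Paired agents were dosed in half-log steps down from about clinical Cmax, or from 10 microM where Cmax was unknown.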
# [1] = curve of first compound, second compound 0.0316 µM
# [2] = curve of first compound, second compound 0.1 µM
# [3] = curve of first compound, second compound 0.316 µM
# [4] = curve of first compound, second compound 1 µM
# [5] = curve of first compound, second compound 3.16 µM
# [6] = curve of first compound, second compound 10 µM
# [7] = second compound 0.0316 µM, first compound 0.0316 µM
# [8] = second compound 0.0316 µM, first compound 0.1 µM
# [9] = second compound 0.0316 µM, first compound 0.316 µM
# [10] = second compound 0.0316 µM, first compound 1 µM
# [11] = second compound 0.1 µM, first compound 0.0316 µM
# [12] = second compound 0.1 µM, first compound 0.1 µM
# [13] = second compound 0.1 µM, first compound 0.316 µM
# [14] = second compound 0.1 µM, first compound 1 µM
# [15] = second compound 0.316 µM, first compound 0.0316 µM
# [16] = second compound 0.316 µM, first compound 0.1 µM
# [17] = second compound 0.316 µM, first compound 0.316 µM
# [18] = second compound 0.316 µM, first compound 1 µM
# [19] = second compound 1 µM, first compound 0.0316 µM
# [20] = second compound 1 µM, first compound 0.1 µM
# [21] = second compound 1 µM, first compound 0.316 µM
# [22] = second compound 1 µM, first compound 1 µM
# [23] = second compound 3.16 µM, first compound 0.0316 µM
# [24] = second compound 3.16 µM, first compound 0.1 µM
# [25] = second compound 3.16 µM, first compound 0.316 µM
# [26] = second compound 3.16 µM, first compound 1 µM
# [27] = second compound 10 µM, first compound 0.0316 µM
# [28] = second compound 10 µM, first compound 0.1 µM
# [29] = second compound 10 µM, first compound 0.316 µM
# [30] = second compound 10 µM, first compound 1 µM
# [31] = second compound 0.0316 µM, first compound 3.16 µM
# [32] = second compound 0.0316 µM, first compound 10 µM
# [33] = second compound 0.1 µM, first compound 3.16 µM
# [34] = second compound 0.1 µM, first compound 10 µM
# [35] = second compound 0.316 µM, first compound 3.16 µM
# [36] = second compound 0.316 µM, first compound 10 µM
# [37] = second compound 1 µM, first compound 3.16 µM
# [38] = second compound 1 µM, first compound 10 µM
# [39] = second compound 3.16 µM, first compound 3.16 µM
# [40] = second compound 3.16 µM, first compound 10 µM
# [41] = second compound 10 µM, first compound 3.16 µM
# [42] = second compound 10 µM, first compound 10 µM
# 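Also: spheroids exposed to compounds for seven days before readout.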
# 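For viability, T/C in this document: 100% = DMSO vehicle control wells.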
compound,measurement,setting,value
CCN1CCN(Cc2ccc(Nc3ncc(F)c(-c4cc(F)c5nc(C)n(C(C)C)c5c4)n3)nc2)CC1 + CNC(=O)c1ccc(Nc2nc(OC3CCCC3)c3c(-c4ccc5nc(C)oc5c4)c[nH]c3n2)c(OC)c1,IC50,[1],> 1000 nM
same,IC50,[2],> 1000 nM
same,IC50,[3],> 1000 nM
same,IC50,[4],> 1000 nM
same,IC50,[5],> 1000 nM
same,IC50,[6],> 1000 nM
same,"viability, T/C","second compound 0.0316 µM, first compound 0.00316 µM",104%
same,"viability, T/C","second compound 0.0316 µM, first compound 0.01 µM",114%
same,"viability, T/C",[7],105%
same,"viability, T/C",[8],116%
same,"viability, T/C",[9],112%
same,"viability, T/C",[10],88.8%
same,"viability, T/C","second compound 0.1 µM, first compound 0.00316 µM",110%
same,"viability, T/C","second compound 0.1 µM, first compound 0.01 µM",110%
same,"viability, T/C",[11],126%
same,"viability, T/C",[12],109%
same,"viability, T/C",[13],120%
same,"viability, T/C",[14],97.5%
same,"viability, T/C","second compound 0.316 µM, first compound 0.00316 µM",119%
same,"viability, T/C","second compound 0.316 µM, first compound 0.01 µM",107%
same,"viability, T/C",[15],118%
same,"viability, T/C",[16],99%
same,"viability, T/C",[17],108%
same,"viability, T/C",[18],87.5%
same,"viability, T/C","second compound 1 µM, first compound 0.00316 µM",105%
same,"viability, T/C","second compound 1 µM, first compound 0.01 µM",89.8%
same,"viability, T/C",[19],91.8%
same,"viability, T/C",[20],119%
same,"viability, T/C",[21],106%
same,"viability, T/C",[22],78.6%
same,"viability, T/C","second compound 3.16 µM, first compound 0.00316 µM",95.2%
same,"viability, T/C","second compound 3.16 µM, first compound 0.01 µM",92.5%
same,"viability, T/C",[23],82.3%
same,"viability, T/C",[24],92.5%
same,"viability, T/C",[25],95.8%
same,"viability, T/C",[26],93%
same,"viability, T/C","second compound 10 µM, first compound 0.00316 µM",95.5%
same,"viability, T/C","second compound 10 µM, first compound 0.01 µM",89.4%
same,"viability, T/C",[27],90.2%
same,"viability, T/C",[28],96.8%
same,"viability, T/C",[29],108%
same,"viability, T/C",[30],80.5%
O=c1[nH]cc(F)c(=O)[nH]1 + CN1CCN(c2cc(C(=O)Nc3cc4cc(-c5cnn(C)c5)ccc4cn3)ccn2)CC1,IC50,[1],> 10000 nM
same,IC50,[2],> 10000 nM
same,IC50,[3],< 31.6 nM
same,IC50,[4],< 31.6 nM
same,IC50,[5],< 31.6 nM
same,IC50,[6],< 31.6 nM
same,"viability, T/C",[7],128%
same,"viability, T/C",[8],120%
same,"viability, T/C",[9],132%
same,"viability, T/C",[10],125%
same,"viability, T/C",[31],125%
same,"viability, T/C",[32],96.5%
same,"viability, T/C",[11],149%
same,"viability, T/C",[12],119%
same,"viability, T/C",[13],123%
same,"viability, T/C",[14],139%
same,"viability, T/C",[33],113%
same,"viability, T/C",[34],96%
same,"viability, T/C",[15],20.4%
same,"viability, T/C",[16],25%
same,"viability, T/C",[17],18.3%
same,"viability, T/C",[18],18%
same,"viability, T/C",[35],18.1%
same,"viability, T/C",[36],21.4%
same,"viability, T/C",[19],1.7%
same,"viability, T/C",[20],1.4%
same,"viability, T/C",[21],1.3%
same,"viability, T/C",[22],1.91%
same,"viability, T/C",[37],4.01%
same,"viability, T/C",[38],5.93%
same,"viability, T/C",[23],1.76%
same,"viability, T/C",[24],3.81%
same,"viability, T/C",[25],1.88%
same,"viability, T/C",[26],2.14%
same,"viability, T/C",[39],1.46%
same,"viability, T/C",[40],5.59%
same,"viability, T/C",[27],0.99%
same,"viability, T/C",[28],0.93%
same,"viability, T/C",[29],0.6%
same,"viability, T/C",[30],1.01%
same,"viability, T/C",[41],5.93%
same,"viability, T/C",[42],4.87%
COC1C=CCC(C)C(C)S(=O)(=O)NC(=O)c2ccc3c(c2)N(CC2CCC21)CC1(CCCc2cc(Cl)ccc21)CO3 (stereo not given),"viability, T/C",compound 0.0316 µM,106% and 108%
same,"viability, T/C",compound 0.1 µM,80.2% and 85.4%
same,"viability, T/C",compound 0.316 µM,61% and 66.5%
same,"viability, T/C",compound 1 µM,55.6% and 58.4%
same,"viability, T/C",compound 3.16 µM,56.3% and 56.4%
same,"viability, T/C",compound 10 µM,34.4% and 20.1%
same,IC50,curve of compound,1870 nM and 1810 nM
Cn1ncnc1[C@H]1c2n[nH]c(=O)c3cc(F)cc(c23)N[C@@H]1c1ccc(F)cc1,"viability, T/C",compound 0.000316 µM,111% and 95.5%
same,"viability, T/C",compound 0.001 µM,103% and 114%
same,"viability, T/C",compound 0.00316 µM,81.5% and 109%
same,"viability, T/C",compound 0.01 µM,83.8% and 101%
same,"viability, T/C",compound 0.0316 µM,95.8% and 103%
same,"viability, T/C",compound 0.1 µM,76.3% and 84.7%
same,IC50,curve of compound,> 100 nM
CC(CO)NC(=O)c1cc(-c2ccc(Cl)cc2)nn(-c2cnn(C)c2)c1=O (stereo not given) + CN1CCN(c2cc(C(=O)Nc3cc4cc(-c5cnn(C)c5)ccc4cn3)ccn2)CC1,IC50,[1],> 10000 nM
same,IC50,[2],> 10000 nM
same,IC50,[3],< 31.6 nM
same,IC50,[4],< 31.6 nM
same,IC50,[5],< 31.6 nM
same,IC50,[6],< 31.6 nM
same,"viability, T/C",[7],129%
same,"viability, T/C",[8],113%
same,"viability, T/C",[9],128%
same,"viability, T/C",[10],120%
same,"viability, T/C",[31],115%
same,"viability, T/C",[32],108%
same,"viability, T/C",[11],130%
same,"viability, T/C",[12],128%
same,"viability, T/C",[13],135%
same,"viability, T/C",[14],125%
same,"viability, T/C",[33],135%
same,"viability, T/C",[34],130%
same,"viability, T/C",[15],21.2%
same,"viability, T/C",[16],17%
same,"viability, T/C",[17],17.9%
same,"viability, T/C",[18],17.5%
same,"viability, T/C",[35],18.3%
same,"viability, T/C",[36],18.2%
same,"viability, T/C",[19],2.7%
same,"viability, T/C",[20],2.28%
same,"viability, T/C",[21],1.94%
same,"viability, T/C",[22],1.84%
same,"viability, T/C",[37],2.34%
same,"viability, T/C",[38],1.94%
same,"viability, T/C",[23],2.22%
same,"viability, T/C",[24],2.04%
same,"viability, T/C",[25],1.99%
same,"viability, T/C",[26],2.65%
same,"viability, T/C",[39],2.74%
same,"viability, T/C",[40],2.69%
same,"viability, T/C",[27],1.3%
same,"viability, T/C",[28],1.36%
same,"viability, T/C",[29],2.02%
same,"viability, T/C",[30],1.53%
same,"viability, T/C",[41],3.43%
same,"viability, T/C",[42],2.58%

# Source: PubChem BioAssay AID2060614 (Molecular Pharmacology Branch, DTP, NCI, 2025)
